According to US12077503B2, “Substituted cyclic amides and their use as herbicides” (FMC CORPORATION, priority 2015, dated 2024):

Experiments:
Type in all cases: in vivo
[1] = test system: barnyardgrass (Echinochloa crus-galli); assay: Test G Pre-Emergence Protocol; settings: Echinochloa crus-galli, pre-emergence, 312 h, evaluated after 13 days; for pest or weed control at 15.625 g/ha: 15.625 g ai/ha; for pest or weed control at 15.625 g/ha / pest or weed control at 250 g/ha: read-out: Barnyardgrass damage rating (100=total damage to plant; 0=no damage to plant); for pest or weed control at 62.5 g/ha: 62.5 g ai/ha, 100=total damage to plant, 0=no damage to plant, read-out: Barnyardgrass damage rating; for pest or weed control at 250 g/ha: 250 g ai/ha
Outline: (§1)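 Under a 24/16° C day/night regime with 14 h light and 65% humidity, sown pots were sprayed after one day with compound (15.625, 62.5 or 250 g/ha; 50:50 acetone/water, 0.5% Tween 20). Damage was assessed visually 13 days later, 0 to 100.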

[2] = test system: corn (Zea mays); assay: Test G Pre-Emergence Protocol; settings: Zea mays, pre-emergence, 312 h, evaluated after 13 days; for plant injury at 15.625 g/ha: 15.625 g ai/ha; for plant injury at 15.625 g/ha / plant injury at 250 g/ha: read-out: Corn damage rating (100=total damage to plant; 0=no damage to plant); for plant injury at 62.5 g/ha: 62.5 g ai/ha, 100=total damage to plant, 0=no damage to plant, read-out: Corn damage rating; for plant injury at 250 g/ha: 250 g ai/ha
Outline: as §1

[3] = test system: giant foxtail (Setaria faberi); assay: Test G Pre-Emergence Protocol; settings: Setaria faberi, pre-emergence, 312 h, evaluated after 13 days; for pest or weed control at 15.625 g/ha: 15.625 g ai/ha; for pest or weed control at 15.625 g/ha / pest or weed control at 250 g/ha: read-out: Foxtail, Giant damage rating (100=total damage to plant; 0=no damage to plant); for pest or weed control at 62.5 g/ha: 62.5 g ai/ha, 100=total damage to plant, 0=no damage to plant, read-out: Foxtail, Giant damage rating; for pest or weed control at 250 g/ha: 250 g ai/ha
Outline: as §1

[4] = test system: ivy-leaved morning glory (Ipomoea hederacea); assay: Test G Pre-Emergence Protocol; settings: Ipomoea, pre-emergence, 312 h, evaluated after 13 days; for pest or weed control at 15.625 g/ha: 15.625 g ai/ha; for pest or weed control at 15.625 g/ha / pest or weed control at 250 g/ha: read-out: Morningglory, Ivy-leaved damage rating (100=total damage to plant; 0=no damage to plant); for pest or weed control at 62.5 g/ha: 62.5 g ai/ha, 100=total damage to plant, 0=no damage to plant, read-out: Morningglory, Ivy-leaved damage rating; for pest or weed control at 250 g/ha: 250 g ai/ha
Outline: as §1

[5] = test system: redroot pigweed (Amaranthus retroflexus); assay: Test G Pre-Emergence Protocol; settings: Amaranthus retroflexus, pre-emergence, 312 h, evaluated after 13 days; for pest or weed control at 15.625 g/ha: 15.625 g ai/ha; for pest or weed control at 15.625 g/ha / pest or weed control at 250 g/ha: read-out: Pigweed, Redroot damage rating (100=total damage to plant; 0=no damage to plant); for pest or weed control at 62.5 g/ha: 62.5 g ai/ha, 100=total damage to plant, 0=no damage to plant, read-out: Pigweed, Redroot damage rating; for pest or weed control at 250 g/ha: 250 g ai/ha
Outline: as §1

[6] = test system: velvetleaf (Abutilon theophrasti); assay: Test G Pre-Emergence Protocol; settings: Abutilon theophrasti, pre-emergence, 312 h, evaluated after 13 days; for pest or weed control at 15.625 g/ha: 15.625 g ai/ha; for pest or weed control at 15.625 g/ha / pest or weed control at 250 g/ha: read-out: Velvetleaf damage rating (100=total damage to plant; 0=no damage to plant); for pest or weed control at 62.5 g/ha: 62.5 g ai/ha, 100=total damage to plant, 0=no damage to plant, read-out: Velvetleaf damage rating; for pest or weed control at 250 g/ha: 250 g ai/ha
Outline: as §1

[7] = test system: barnyardgrass (Echinochloa crus-galli); assay: Test G Post-Emergence Protocol; settings: Echinochloa crus-galli, post-emergence, 312 h, read-out: Barnyardgrass damage rating; for pest or weed control at 15.625 g/ha: 15.625 g ai/ha, evaluated after 13 days (100=total damage to plant; 0=no damage to plant); for pest or weed control at 62.5 g/ha: 62.5 g ai/ha; for pest or weed control at 62.5 g/ha / pest or weed control at 250 g/ha: evaluated after 13 days, 100=total damage to plant, 0=no damage to plant; for pest or weed control at 250 g/ha: 250 g ai/ha
Outline: (§2)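 Eight days post-sowing, plants received a spray of test compound (acetone/water 50:50, 0.5% Tween 20) at 15.625, 62.5 or 250 g/ha. Glasshouse regime thereafter: 24/16 °C, 14 h light, 65% humidity. Assessment after 13 days on a 0–100 damage scale.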

[8] = test system: corn (Zea mays); assay: Test G Post-Emergence Protocol; settings: Zea mays, post-emergence, 312 h, read-out: Corn damage rating; for plant injury at 15.625 g/ha: 15.625 g ai/ha, evaluated after 13 days (100=total damage to plant; 0=no damage to plant); for plant injury at 62.5 g/ha: 62.5 g ai/ha; for plant injury at 62.5 g/ha / plant injury at 250 g/ha: evaluated after 13 days, 100=total damage to plant, 0=no damage to plant; for plant injury at 250 g/ha: 250 g ai/ha
Outline: as §2

[9] = test system: giant foxtail (Setaria faberi); assay: Test G Post-Emergence Protocol; settings: Setaria faberi, post-emergence, 312 h, read-out: Foxtail, Giant damage rating; for pest or weed control at 15.625 g/ha: 15.625 g ai/ha, evaluated after 13 days (100=total damage to plant; 0=no damage to plant); for pest or weed control at 62.5 g/ha: 62.5 g ai/ha; for pest or weed control at 62.5 g/ha / pest or weed control at 250 g/ha: evaluated after 13 days, 100=total damage to plant, 0=no damage to plant; for pest or weed control at 250 g/ha: 250 g ai/ha
Outline: as §2

[10] = test system: ivy-leaved morning glory (Ipomoea hederacea); assay: Test G Post-Emergence Protocol; settings: Ipomoea, post-emergence, 312 h, read-out: Morningglory, Ivy-leaved damage rating; for pest or weed control at 15.625 g/ha: 15.625 g ai/ha, evaluated after 13 days (100=total damage to plant; 0=no damage to plant); for pest or weed control at 62.5 g/ha: 62.5 g ai/ha; for pest or weed control at 62.5 g/ha / pest or weed control at 250 g/ha: evaluated after 13 days, 100=total damage to plant, 0=no damage to plant; for pest or weed control at 250 g/ha: 250 g ai/ha
Outline: as §2

[11] = test system: redroot pigweed (Amaranthus retroflexus); assay: Test G Post-Emergence Protocol; settings: Amaranthus retroflexus, post-emergence, 312 h, read-out: Pigweed, Redroot damage rating; for pest or weed control at 15.625 g/ha: 15.625 g ai/ha, evaluated after 13 days (100=total damage to plant; 0=no damage to plant); for pest or weed control at 62.5 g/ha: 62.5 g ai/ha; for pest or weed control at 62.5 g/ha / pest or weed control at 250 g/ha: evaluated after 13 days, 100=total damage to plant, 0=no damage to plant; for pest or weed control at 250 g/ha: 250 g ai/ha
Outline: as §2

[12] = test system: velvetleaf (Abutilon theophrasti); assay: Test G Post-Emergence Protocol; settings: Abutilon theophrasti, post-emergence, 312 h, read-out: Velvetleaf damage rating; for pest or weed control at 15.625 g/ha: 15.625 g ai/ha, evaluated after 13 days (100=total damage to plant; 0=no damage to plant); for pest or weed control at 62.5 g/ha: 62.5 g ai/ha; for pest or weed control at 62.5 g/ha / pest or weed control at 250 g/ha: evaluated after 13 days, 100=total damage to plant, 0=no damage to plant; for pest or weed control at 250 g/ha: 250 g ai/ha
Outline: as §2

| Compound | pest or weed control at 15.625 g/ha [1] | pest or weed control at 62.5 g/ha [1] | pest or weed control at 250 g/ha [1] | plant injury at 15.625 g/ha [2] | plant injury at 62.5 g/ha [2] | plant injury at 250 g/ha [2] | pest or weed control at 15.625 g/ha [3] | pest or weed control at 62.5 g/ha [3] | pest or weed control at 250 g/ha [3] | pest or weed control at 15.625 g/ha [4] | pest or weed control at 62.5 g/ha [4] | pest or weed control at 250 g/ha [4] | pest or weed control at 15.625 g/ha [5] | pest or weed control at 62.5 g/ha [5] | pest or weed control at 250 g/ha [5] | pest or weed control at 15.625 g/ha [6] | pest or weed control at 62.5 g/ha [6] | pest or weed control at 250 g/ha [6] | pest or weed control at 15.625 g/ha [7] | pest or weed control at 62.5 g/ha [7] | further results |
| --- | --- | --- | --- | --- | --- | --- | --- | --- | --- | --- | --- | --- | --- | --- | --- | --- | --- | --- | --- | --- | --- |
| CON1C[C@H](c2ccc(C(F)(F)F)cc2)[C@@H](C(=O)Nc2cccc(F)c2F)C1=O (racemic) [Compound 1836] | 10% | 70% | 80% | 10% | 10% | 80% | 50% | 80% | 90% | 10% | 20% | 30% | 0% | 50% | 50% | 0% | 0% | 30% | 0% | 70% | pest or weed control at 250 g/ha [7]: 80%; plant injury at 15.625 g/ha [8]: 0%; plant injury at 62.5 g/ha [8]: 10%; plant injury at 250 g/ha [8]: 70%; pest or weed control at 15.625 g/ha [9]: 50%; pest or weed control at 62.5 g/ha [9]: 70%; pest or weed control at 250 g/ha [9]: 70%; pest or weed control at 15.625 g/ha [10]: 20%; pest or weed control at 62.5 g/ha [10]: 20%; pest or weed control at 250 g/ha [10]: 40%; pest or weed control at 15.625 g/ha [11]: 20%; pest or weed control at 62.5 g/ha [11]: 60%; pest or weed control at 250 g/ha [11]: 70%; pest or weed control at 15.625 g/ha [12]: 10%; pest or weed control at 62.5 g/ha [12]: 20%; pest or weed control at 250 g/ha [12]: 50% |
| Cc1c(F)cccc1NC(=O)[C@@H]1C(=O)N(C)C[C@H]1c1ccc2nonc2c1 (racemic) [Compound 1818] | 30% | 30% | 90% | 0% | 0% | 70% | 70% | 90% | 90% | 0% | 10% | 40% | 0% | 0% | 40% | 0% | 30% | 70% | 0% | 30% | pest or weed control at 250 g/ha [7]: 80%; plant injury at 15.625 g/ha [8]: 0%; plant injury at 62.5 g/ha [8]: 30%; plant injury at 250 g/ha [8]: 60%; pest or weed control at 15.625 g/ha [9]: 40%; pest or weed control at 62.5 g/ha [9]: 80%; pest or weed control at 250 g/ha [9]: 80%; pest or weed control at 15.625 g/ha [10]: 0%; pest or weed control at 62.5 g/ha [10]: 10%; pest or weed control at 250 g/ha [10]: 40%; pest or weed control at 15.625 g/ha [11]: 0%; pest or weed control at 62.5 g/ha [11]: 0%; pest or weed control at 250 g/ha [11]: 0%; pest or weed control at 15.625 g/ha [12]: 0%; pest or weed control at 62.5 g/ha [12]: 0%; pest or weed control at 250 g/ha [12]: 30% |
